From patent publication US6605598B1, “Chemically synthesized sugar esters for the control of soft-bodied arthropods” (The United States of America as represented by the …, priority 1994, dated 2003)

Columns and labels:
[1] = system: greenhouse whitefly, Trialeurodes vaporariorum Westwood; test: Spray bioassay against the greenhouse whitefly; assay type: in vivo; details: group 2 SE, 1.0 mg/ml spray solution, after 24 hours, average of number of tests
Description: (§1) Bioassays of the total SE reaction products as well as of the individual groups of SE were conducted using the tobacco aphid, Myrzus Nicotiana Blackman, the greenhouse whitefly, Trialeurodes vaporariorum Westwood, and the sweetpotato whitefly, Bemisia tabaci Gennadius. Aqueous dispersions of sugar ester fractions, obtained from the column chromatographic step or the total reaction SE products were tested generally at a concentration of 1 mg/ml of water. To prepare the sprayable aqueous mixtures, a small amount of methanol (approximately about 20 μl per 10 mg of dried test compound) is added to the dried test compound. This is agitated gently. Then acetone is added to the methanol mixture to yield a concentration of approximately about 0.05 g/ml. This is shaken gently. To obtain a final, sprayable concentration of approximately about 1 mg sucrose ester/ml, about 10 ml of water are added to the mixture. This is then placed into an ultrasonic bath for 20 minutes. The resulting solution is ready to spray. Green-house reared apterous (wingless) aphids, that colonized a green tobacco plant, were removed with a leaf, sprayed, and kept in a closed petri dish. Percent mortality was determined after 24 hours. In a similar manner, bioassays against the green house whitefly or sweetpotato whitefly are conducted by spraying sucrose ester dispersions at 1 mg/ml of water onto whiteflies, trapped on a sticky surface, and determining percent mortality after 2-24 hours. Tables II and III below show the percent mortality of aphids treated by the individual sucrose ester groups and the total SE reaction products.

[2] = system: tobacco aphid, Myrzus Nicotiana Blackman; test: Spray bioassay against tobacco aphids; assay type: in vivo; details: individual SE groups; 1 mg SE/ml aqueous spray solution; after 24 hours; average of number of tests
Description: as §1

CCCCCCCC(=O)OCC1OC(OC2(CO)OC(COC(=O)CCCCCCC)C(O)C2O)C(O)C(O)C1O (single isomer, unassigned) [dioctanoyl sucrose]
mortality at 1000 µg/mL ([1]; Trialeurodes vaporariorum): 100% | % Mortality [2]: 88%

didecanoyl sucrose
% Mortality [1]: 100% | % Mortality [2]: 43%

monodecanoyl sucrose
% Mortality [2]: 47%

didodecanoyl sucrose
% Mortality [1]: 100% | % Mortality [2]: 23%

monoheptanoyl sucrose
% Mortality [2]: 17%

monododecanoyl sucrose
% Mortality [2]: 47%

tridodecanoyl sucrose
% Mortality [2]: 15%

monononanoyl sucrose
% Mortality [2]: 16%

tridnanoyl sucrose
% Mortality [2]: 13%

dihexanoyl sucrose
% Mortality [1]: 77%

monooctanoyl sucrose
% Mortality [2]: 11%

CCCCCCCC(=O)OCC1OC(OC2(COC(=O)CCCCCCC)OC(COC(=O)CCCCCCC)C(O)C2O)C(O)C(O)C1O (single isomer, unassigned) [trioctanoyl sucrose]
% Mortality [2]: 27%

diheptanoyl sucrose
% Mortality [1]: 100% | % Mortality [2]: 88%

dinonanoyl sucrose
% Mortality [1]: 87% | % Mortality [2]: 64%

tridecanoyl sucrose
% Mortality [2]: 15%

triheptanoyl sucrose
% Mortality [2]: 16%
